# Source: patent US8563254B2, “Biomarkers of tumor pharmacodynamic response” (Novartis AG, priority 2009, dated 2013)
# Assays:
# [1] = test system: GTL-16 tumor-bearing mice; experiment: Serum IL-8 / mouse KC in GTL-16 mouse xenograft model; type: in vivo
# Procedure: The in vivo study was carried out in strict accordance with Swiss law for animal protection and was approved by the Swiss Cantonal Veterinary Office of Basel-Stadt. GTL-16 (4×10^6) and A375 cells (5×10^6) were inoculated subcutaneously in the right flank in 200 μl Hanks' balanced salt solution (HBSS) or PBS, respectively. Invasive procedures were performed under Forene anesthesia. All experiments were performed in female Harlan HsdNpa: Athymic Nude-nu mice (Laboratory Animal Services, Novartis Pharma AG, Basel). The animals were kept under optimized hygienic conditions with 12 hr dark, 12 hr light conditions. The animals were fed food and water ad libitum. A single 75 mg/kg and 50 mg/kg dose of Hsp90 inhibitor, NVP-AUY922 was administered to the GTL-16 and A375 tumor-bearing mice, when tumors had reached a mean volume of 200 mm^3-500 mm^3 in size. Mice in the control group were injected with the vehicle (D5W). Serum was isolated and tumors dissected over the time course 0-168 hr. Tumors were cut in two halves. One half was paraffin embedded and the other snap frozen, and stored at −80° C.
# Human IL-8 levels in cell culture supernatants treated with NVP-AUY922 were initially assessed as part of a multiplexed bead-based cytokine panel (hu 27-plex panel I, Bio-rad Laboratories, Hercules, Calif., USA) with a BioPlex Suspension Array System (Bio-rad). Human IL-8 and mouse KC levels in serum derived from GTL-16 and A375 tumor-bearing mice treated with NVP-AUY922 were measured by single-plex cytokine bead-based assay (Milliplex, Millipore, Billerica, Mass., USA). The BioPlex system uses a liquid suspension array of beads. The beads align in a single file through a flow cell to the detector, where a red classification laser at a wavelength of 635 nm and a green reporter laser at a wavelength of 532 nm are used to identify each bead's spectral address and associated reporter signal, respectively.
# GTL-16 cells [2] = experiment: Western blot of nuclear protein fractions, GTL-16; type: cell-based, human; settings: GTL-16, 0.3 μM, 16 hr and 24 hr, normalized to total protein
# Procedure: Total protein lysates were prepared from the GTL-16 and A375 cells with RIPA lysis buffer (Upstate, Millipore Corporation, Charlottesville, Va., USA). Cells were washed with PBS and 500 ul of ice-cold RIPA buffer, containing protease inhibitor cocktail tablet (Roche Diagnostic GmbH, Mannheim, Germany) and phosphatase inhibitors (Sigma-Aldrich, Inc., St. Louis, Mo., USA), was added to each plate on ice. After 15 min the cells were scrapped from the plate surface and spun at 16000 RPM for 10 min at 4° C. The supernatant was collected and frozen at −80° C. Nuclear protein fractions were prepared by the NE-PER nuclear and cytoplasmic extraction kit (Pierce Biotechnology, Rockford, Ill., USA). Proteins were quantified by bicinchoninic acid assay (Pierce Biotechnology, Rockford, Ill., USA) for Western blotting.
# Primary antibodies specific for NFκB p65, cREL, p-ERK1/2, p-c-jun, ERK1 and Jun were purchased from Santa Cruz Biotechnology (Santa Cruz Biotechnology, Inc., Santa Cruz, Calif., USA) with the exception of Hsp70 and TBP (nuclear loading control), which were obtained from StressGen (StressGen, Assay Designs, Inc., Aim Arbor, Mich., USA) and Abcam (Abcam Inc., Cambridge, Mass., USA), respectively. […]
# GTL-16 cells [3] = experiment: IL-8 ELISA of GTL-16 culture supernatants; type: cell-based, human
# Procedure: A malignant melanoma cell line A375 (American Type Culture Collection, Manassas, Va., USA) and gastric cancer cell line, GTL-16 (Prof Silvia Giordano, Institute for Cancer Research and Treatment, Turin, Italy) were cultured in RPMI 1640 supplemented with 10% FBS and 1% penicillin-streptomycin at 37° C. in 5% CO2 (GIBCO reagents, Invitrogen Corporation, Carlsbad, Calif., USA). Cell numbers were determined by ViCell™ XR Cell Viability Analyzer 2.03 (Beckman Coulter, Inc., Fullerton, Calif., USA). Cells were seeded in poly-D-lysine coated plates (BIOCOAT Cell Environments, Becton Dickinson Biosciences, San Jose, Calif., USA).
# Human IL-8 levels in cell culture supernatants from GTL-16 and A375 cells were measured by a sandwich enzyme-linked immunosorbent assay (R&D Systems, Inc., Minneapolis, Minn., USA). Cell culture supernatants were collected from DMSO and NVP-AUY922 treated cells 16, 24, 48 and 72 hr post-treatment and stored at −20° C.
# To better characterize the relationship between Hsp90 inhibitor treatment and effects on IL-8 production, GTL-16 and A375 cells were washed and treated for 24 hr with fresh medium containing various concentrations of NVP-AUY922. For this length of treatment time, maximal inhibition of IL-8 accumulation appears to be reached at 0.3 μM as measured by enzyme-linked immunosorbent assay; this equates to 80% and 60% reductions in GTL-16 and A375 cultures, respectively (FIGS. 2A, B).
smiles,measurement,setting,value
"CCNC(=O)c1noc(-c2cc(C(C)C)c(O)cc2O)c1-c1ccc(CN2CCOCC2)cc1 [NVP-AUY922, 5-(2,4-Dihydroxy-5-isopropyl-phenyl)-4-(4-morhpolin-4-ylmethyl-phenyl)-isoxazole-3-carboxylic acid ethylamide]","murine IL-8 levels, measured indirectly as mu KC",[1]; serum,unchanged
same,earliest time of significant decrease in serum IL-8,[1]; single 75 mg/kg dose,6 h
same,time by which serum IL-8 recovers to pre-treatment levels,[1]; single 75 mg/kg dose,≤ 72 h
same,maximum decline of serum IL-8 levels,"[1]; single 75 mg/kg dose, 12 hr post-treatment",approximately 70%
same,change in nuclear NFκB p65 levels,GTL-16 cells [2],−26%
same,decrease in nuclear phospho-c-Jun levels,GTL-16 cells [2],~83%
same,time within which IL-8 production dramatically declines,"GTL-16 cells [3]; GTL-16, 0.3 μM",≤ 16 h
same,concentration at which maximal inhibition of IL-8 accumulation is reached,"GTL-16 cells [3]; GTL-16, 24 hr treatment",0.3 µM
same,inhibition at 0.3 µM,"GTL-16 cells [3]; Homo sapiens, GTL-16, 0.3 μM, 24 hr, ELISA, read-out: reduction of IL-8 accumulation (maximal inhibition)",80%
